In one series the test system is complementary RNA. The experiment in a line: Thermal denaturation experiment (Tm) of DNA strand with complementary RNA (Example 49). It is filed as binding. The following applies: duplex with complementary RNA, equimolar 0.5 μM in 1×PBS; first derivative of 254 nm absorbance curve. The method, then: Each DNA strand was mixed with complementary RNA in equimolar concentration of 0.5 μM in 1×PBS. Total 2.5 mL solution was prepared for each duplex and the mixture was heated at 90° C. for 2 min and was allowed to cool down over the course of several hours. The mixtures were then stored at 4° C. for 2 hrs. Absorbance at 254 nm was recorded at an interval of 0.5 min starting the temperature gradient from 15° C. to 90° C. with rise of 0.5° C./minute, using a Perkin Elmer UV-spectrophotometer equipped with a Peltier unit. The 254 nm absorbance was plotted against the temperature and the Tm values were calculated from the respective first derivative of each curve.

The subject of series [1] is Apolipoprotein B (Apo B) (NM_000384). Put plainly: Apo B gene expression in Hep3B cells after Lipofectamine 2000 transfection, real-time PCR SYBR green (Example 50). The class given is cell-based, Homo Sapiens. The following applies: for activity compared to Mipomersen (120) / potency compared to the corresponding stereorandom oligonucleotide mixture (Oligonucleotide 118): from Table E-19 IC50, Hep3B. The method, then: After checking OD all oligonucleotide candidate molecules were diluted to a starting concentration of 20 μM. Multidose forward transfection experiment was setup in 96-well plates using Hep3B cells (ATCC®, Cat. HB-8064™) using Lipofectamine 2000 (Life Technologies, Cat. 11668-019) transfection reagent.
2×10^4 Hep3B cells per well were seeded and incubated for 24 hours at 37° C. in a CO2 incubator in 100 μl of antibiotic free MEM medium (Life Technologies, Cat. 11095098) containing 10% FBS and 1% Glutamax I (Life Technologies, Cat. 35050061). Twelve dilutions were setup in nuclease free water (Table E-16).
For each well, 0.5 μL of Lipofectamine 2000 were mixed with 9.5 μL of Opti MEM I reduced serum medium (Life Technologies, Cat. 31985062) and incubated for 5 minutes. Following incubation, 10 μL of each of the candidates at the reported concentrations was mixed with the diluted Lipofectamine 2000 by gentle pipetting. The mixture was then incubated for 20 minutes at room temperature to allow for complex formation. During this time the cell growth medium was replaced with 80 μL of fresh antibiotic free MEM as previously described. 20 μL of lipid-oligo complex was gently mixed into each well bringing the total volume to 100 μL. The cells were then incubated for 24 hours at 37° C. in a CO2 incubator.
After 24 hour incubation the cell growth medium was removed and RNA was extracted using a Dynabeads mRNA Direct kit (Life Technologies, Cat. 61012) per the instructions provided in the kit manual without modifications. This magnetic Oligo (dT)^25 bead system allows for cost-effective and robust high-throughput poly (A) RNA extraction circumventing DNAse treatment. RNA was eluted in nuclease-free water and stored at −80° C.
10 μL of RNA was used in a 20 μL cDNA synthesis reaction using a High Capacity cDNA Reverse Transcription Kit (Life Technologies, Cat. 4374967) using the kit protocol with RNAse Inhibitor. The reverse transcription was performed in a 96-well format on a C1000 Touch thermal cycler (Biorad, Cat. 185-1196EDU).
Gene expression was measured by quantitative PCR using a LightCycler® 480 SYBR Green I Master (Roche, Cat. 04707516001) on LightCycler 480 Real-Time PCR instrument. Primers for the Homo Sapiens sequences of the target Apolipoprotein B (Apo B) (NM_000384) and endogenous control Glyceralydhyde-3-phosphate dehydrogenase (GAPDH) (NM_002046) were designed and ordered from IDT (Table E-17).
Measurement of the target and endogenous control was performed in separate wells using material from the same cDNA template. SYBR green assay PCR conditions were setup as described in the SYBR Green I Master protocol (Table E-18).
The data is a result of 3 biological replicates. All samples were compared to Naïve untransfected control. The following results were observed when evaluating gene expression by real-time PCR using SYBR green (Table E-19, FIG. 5).

A further series deals with Mouse B Cells. The following applies: mean and std. dev. of at least 3 experiments, compared to wells with no added ODN, cited from earlier work.
The subject of the next series is NK activity. The settings on record: cited from earlier work; for % 2C11 Specific Lysis, Effector:Target 50:1 / % 2C11 Specific Lysis, Effector:Target 100:1: 2C11 targets; for % YAC-1 Specific Lysis, Effector:Target 50:1 / % YAC-1 Specific Lysis, Effector:Target 100:1: YAC-1 targets.
Where [2] appears, read: Apo B mRNA, Hep3B cells, 24 hours after transfection, read-out: IC50 (nM) (rounded up to single digit).
The mark [3] stands for this setting: Complete IC50 data evaluated by SYBR green, Apo B mRNA, Hep3B cells, 24 hours, 3 biological replicates, read-out: IC50.

Read-outs that look alike come from different tables or passages of the source. Strand notation (5' to 3'): a small letter for the sugar, then the base; units joined by * are phosphorothioate-linked, units joined directly phosphodiester-linked; [ ] holds rarer units or linkages, { } end groups; capitals alone tell only the bases. [Rp] = phosphorothioate linkage, Rp; [Sp] = phosphorothioate linkage, Sp; d = 2'-deoxy (DNA)

As to “(Sp, Rp, Rp, Rp, Rp, Rp, Rp, Rp, Rp, Rp, Rp, Rp, Rp, Rp, Rp, Rp, Rp, Rp, Sp)-d[GsCsCsTsCsAsGsTsCsTsGsCsTsTsCsGsCsAsCsC] (DNA GCCTCAGTCTGCTTCGCACC; DNA, linkages [Sp]1 [Rp]17 [Sp]1 (s phosphorothioate, o phosphodiester), methylation of C not given here) [Oligonucleotide 105]”, in the series with complementary RNA, the “Tm (° C.) ± 0.5” value is 66.5 °C. Besides, the IC50 in series [1] (setting [2]) was determined as 3 nM. For the same substance, the IC50 in series [1] (setting [3]) worked out at 2.88 nM. For the same substance, in series [1], the “activity compared to Mipomersen (120)” value is on record as “more active” and the “potency compared to the corresponding stereorandom oligonucleotide mixture (Oligonucleotide 118)” value is on record as “more potent”.

Take “119 (DNA GCCTCAGTCTGCTTCGCACC; unmodified DNA) [Oligonucleotide 119]”: the “Tm (° C.) ± 0.5” value in the series on complementary RNA came out at 73.4 °C. The “IC50 (nM) (rounded up to single digit)” value in series [1] (Apo B mRNA, Hep3B cells, 24 hours after transfection) is “Not detected”.

For “(Sp, Rp, Rp, Sp, Rp, Rp, Sp, Rp, Rp, Sp, Rp, Rp, Sp, Rp, Rp, Sp, Rp, Rp, Sp)-d[GsCsCsTsCsAsGsTsCsTsGsCsTsTsCsGsCsAsCsC] (DNA GCCTCAGTCTGCTTCGCACC; DNA, linkages [Sp][Rp][Rp][Sp][Rp][Rp][Sp][Rp][Rp][Sp][Rp][Rp][Sp][Rp][Rp][Sp][Rp][Rp][Sp] (s phosphorothioate, o phosphodiester), methylation of C not given here) [Oligonucleotide 115]”, the “Tm (° C.) ± 0.5” value with complementary RNA amounted to 65.2 °C. In addition, in series [1] (setting [2]), the IC50 was 3 nM. The IC50 in series [1] (setting [3]) was 2.69 nM. In series [1], the “activity compared to Mipomersen (120)” value is given as “more active” and the “potency compared to the corresponding stereorandom oligonucleotide mixture (Oligonucleotide 118)” value is reported as “more potent”.

Regarding “(Rp, Sp, Rp, Rp, Sp, Rp, Rp, Sp, Rp, Rp, Sp, Rp, Rp, Sp, Rp, Rp, Sp, Rp, Rp)d[GsCsCsTsCsAsGsTsCsTsGsCsTsTsCsGsCsAsCsC] (DNA dG[Rp]dC[Sp]dC[Rp]dT[Rp]dC[Sp]dA[Rp]dG[Rp]dT[Sp]dC[Rp]dT[Rp]dG[Sp]dC[Rp]dT[Rp]dT[Sp]dC[Rp]dG[Rp]dC[Sp]dA[Rp]dC[Rp]dC) [Oligonucleotide 116]”, in the series on complementary RNA, the “Tm (° C.) ± 0.5” value came to 64.8 °C. Moreover, the IC50 in series [1] (setting [2]) amounted to 2 nM. Besides, the IC50 in series [1] (setting [3]) is 1.92 nM. Moreover, in series [1], the “activity compared to Mipomersen (120)” value is reported as “more active” and the “potency compared to the corresponding stereorandom oligonucleotide mixture (Oligonucleotide 118)” value is reported as “more potent”.

With “(Rp, Sp, Sp, Sp, Sp, Sp, Sp, Sp, Sp, Sp, Sp, Sp, Sp, Sp, Sp, Sp, Sp, Sp, Rp)-d[GsCsCsTsCsAsGsTsCsTsGsCsTsTsCsGsCsAsCsC] (DNA GCCTCAGTCTGCTTCGCACC; DNA, linkages [Rp]1 [Sp]17 [Rp]1 (s phosphorothioate, o phosphodiester), methylation of C not given here) [Oligonucleotide 106]”, the “Tm (° C.) ± 0.5” value in the series on complementary RNA came out at 61.8 °C. Besides, the IC50 in series [1] (setting [2]) is 4 nM; in series [1] (setting [3]), approximately 3.85 nM. For the same substance, the “activity compared to Mipomersen (120)” value in series [1] is “more active”.

For the substance “(Rp, Rp, Sp, Rp, Rp, Sp, Rp, Rp, Sp, Rp, Rp, Sp, Rp, Rp, Sp, Rp, Rp, Sp, Rp)-d[GsCsCsTsCsAsGsTsCsTsGsCsTsTsCsGsCsAsCsC] (DNA GCCTCAGTCTGCTTCGCACC; DNA, linkages [Rp][Rp][Sp][Rp][Rp][Sp][Rp][Rp][Sp][Rp][Rp][Sp][Rp][Rp][Sp][Rp][Rp][Sp][Rp] (s phosphorothioate, o phosphodiester), methylation of C not given here) [Oligonucleotide 114]”, the “Tm (° C.) ± 0.5” value in the series on complementary RNA turned out to be 65.2 °C. Further, the IC50 in series [1] (setting [2]) amounted to 5 nM; in series [1] (setting [3]) it was 5.23 nM.

For “1 (DNA GCTAGACGTTAGCGT; chemistry not given here) [Oligonucleotide 1]”, in the series on Mouse B Cells (US 6,239,116 Table 1), the “Stimulation Index, 3H Uridine” value was 6.1 ± 0.8 and the “Stimulation Index, IgM Production” value is given as 17.9 ± 3.6. Besides, the “Stimulation Index, 3H Uridine” value with Mouse B Cells is 6.1 ± 0.8. In the series with NK activity (Effector:Target 50:1), the “% 2C11 Specific Lysis, Effector:Target 50:1” value is reported as 38.7%; the “% 2C11 Specific Lysis” value was 38.7%; the “% YAC-1 Specific Lysis” value is recorded as 16.1%; the “% YAC-1 Specific Lysis, Effector:Target 50:1” value is listed as 16.1%. In addition, in the series with NK activity (Effector:Target 100:1), the “% 2C11 Specific Lysis, Effector:Target 100:1” value is 47.2%; the “% 2C11 Specific Lysis” value is 47.2%; the “% YAC-1 Specific Lysis” value is reported as 24.5%; the “% YAC-1 Specific Lysis, Effector:Target 100:1” value is 24.5%.

Turning to “(Rp, Rp, Rp, Sp, Sp, Sp, Sp, Sp, Sp, Sp, Sp, Sp, Sp, Sp, Sp, Sp, Rp, Rp, Rp)-d[GsCsCsTsCsAsGsTsCsTsGsCsTsTsCsGsCsAsCsC] (DNA GCCTCAGTCTGCTTCGCACC; DNA, linkages [Rp]3 [Sp]13 [Rp]3 (s phosphorothioate, o phosphodiester), methylation of C not given here) [Oligonucleotide 110]”, in the series on complementary RNA, the “Tm (° C.) ± 0.5” value was 62.9 °C. Besides, the IC50 in series [1] (setting [2]) was found to be 7 nM; in series [1] (setting [3]), 7.44 nM.

“(Sp, Sp, Sp, Sp, Sp, Rp, Rp, Rp, Rp, Rp, Rp, Rp, Rp, Rp, Sp, Sp, Sp, Sp, Sp)-d[GsCsCsTsCsAsGsTsCsTsGsCsTsTsCsGsCsAsCsC] (DNA GCCTCAGTCTGCTTCGCACC; DNA, linkages [Sp]5 [Rp]9 [Sp]5 (s phosphorothioate, o phosphodiester), methylation of C not given here) [Oligonucleotide 104]”: in the series with complementary RNA, the “Tm (° C.) ± 0.5” value is 63.5 °C. Also, the half-maximal inhibitory concentration (IC50) in series [1] (setting [2]) turned out to be 4 nM; in series [1] (setting [3]), 4.29 nM. Also, in series [1], the “activity compared to Mipomersen (120)” value was “more active”.

For the substance “(Sp, Rp, Sp, Rp, Sp, Rp, Sp, Rp, Sp, Rp, Sp, Rp, Sp, Rp, Sp, Rp, Sp, Rp, Sp)-d[GsCsCsTsCsAsGsTsCsTsGsCsTsTsCsGsCsAsCsC] (DNA GCCTCAGTCTGCTTCGCACC; DNA, linkages [Sp][Rp][Sp][Rp][Sp][Rp][Sp][Rp][Sp][Rp][Sp][Rp][Sp][Rp][Sp][Rp][Sp][Rp][Sp] (s phosphorothioate, o phosphodiester), methylation of C not given here) [Oligonucleotide 108]”, the “Tm (° C.) ± 0.5” value with complementary RNA was found to be 64.8 °C. The IC50 in series [1] (setting [2]) was found to be 3 nM; in series [1] (setting [3]) it was 3.19 nM.

On to “3Dd (DNA GAGAACGCTGGACCTTCCAT; Z modified cytosine, further chemistry not given here) [Oligonucleotide 3Dd]”, for which, in the series with Mouse B Cells (US 6,239,116 Table 1), the “Stimulation Index, 3H Uridine” value is on record as 1.2 ± 0.2 and the “Stimulation Index, IgM Production” value was 1.0 ± 0.4. For the same substance, the “Stimulation Index, 3H Uridine” value in the series on Mouse B Cells is reported as 1.2 ± 0.2. Also, in the series with NK activity (Effector:Target 50:1), the “% 2C11 Specific Lysis, Effector:Target 50:1” value was 37.0%; the “% 2C11 Specific Lysis” value is on record as 37.0%; the “% YAC-1 Specific Lysis” value is given as 17.1%; the “% YAC-1 Specific Lysis, Effector:Target 50:1” value is on record as 17.1%. In addition, in the series with NK activity (Effector:Target 100:1), the “% 2C11 Specific Lysis, Effector:Target 100:1” value is reported as 40.0%; the “% 2C11 Specific Lysis” value is 40.0%; the “% YAC-1 Specific Lysis” value is given as 27.0%; the “% YAC-1 Specific Lysis, Effector:Target 100:1” value is 27.0%.

These data come from patent US10590413B2, “Chiral control” (WAVE LIFE SCIENCES LTD., priority 2012, dated 2020).
